Assay results published in patent publication US5215991A, “Combination of selective alpha-adrenergic agonists and Na^+ /H^+ e x” (priority 1990, dated 1993).

How the values were obtained:
[1] = system: New Zealand White rabbits with normotensive IOP; assay: Intraocular pressure (IOP) after topical ocular administration in normotensive New Zealand White rabbits; assay type: in vivo, New Zealand White rabbit; conditions: for ocular hypotensive response to the alpha2 agonist after pretreatment with the Na+/H+ exchange inhibitor: pretreatment with Na+/H+ exchange inhibitor (1%) 30 min before the alpha2 agonist, FIGS. 2-4; for ΔIOP at 1 Hr., (X + p) / ΔIOP at 3 Hr., (X + p): Na+/H+ inhibitor X (1%) followed 30 min later by p-amino clonidine (0.1%), mean change from pre-drug level; for ΔIOP at 1 Hr., (X + p): 1 hour post p-amino clonidine; for ΔIOP at 3 Hr., (X + p): 3 hours post p-amino clonidine; for ΔIOP at 1 Hr., (X + p) - p / ΔIOP at 3 Hr., (X + p) - p: difference between X (1%) + p-amino clonidine (0.1%) and p-amino clonidine alone; for IOP change, amiloride analog administered alone: amiloride analogs alone, Example 2
Procedure: Ocular co-administration of an alpha2 agonist and a Na^+ /H^+ exchange inhibitor to effect lowering of IOP was experimentally tested in the New Zealand White rabbit.
The effect of co-administrating of alpha2 agonists and a Na^+ /H^+ exchange inhibitor on lowering IOP was testing in New Zealand White rabbits with normotensive IOP and weighing 3-4 kg. Topical anesthesia was produced by instillation of about 5 μl of […].
Separate solution of various alpha2 agonists and a Na^+ /H^+ exchange inhibitor were prepared by dissolving the specified quantity of agonists or the Na^+ /H^+ exchange inhibitor in distilled water to obtain the concentrations shown below in Table III. The pH of the final solutions ranged from about 4 to about 7.5 as indicated by the characteristics of the individual drugs.
The animals were divided into 2 groups. One group was treated with the Na^+ /H^+ exchange inhibitor followed by an alpha2 agonist and the other group received vehicle followed by the alpha2 agonist. Intraocular pressure (IOP) was measured in both eyes for each animal using a calibrated DIGILAB® pneumatonograph. […] Thirty minutes after application of the Na^+ /H^+ exchange inhibitor or vehicle, IOP was again measured for the eye. Immediately following these measurements, 50 μl of one of the alpha2 agonists solution given in Table III was administered to the test eye in the same manner described above. Thereafter, IOP measurements for each eye of each animal were made at 30 minutes after administration of the alpha2 agonist, then hourly for 6 hours. In separate experiments, the IOP response to the Na^+ /H^+ exchange inhibitor alone was determined.
In another series of experiments, carried out in substantially the same manner as set forth in Example 1, various amiloride analogs with varying potencies at inhibiting Na^+ /H^+ exchange were co-administered with an alpha2 agonist, p-amino clonidine, and IOP determine. […] The data are expressed as mean changes from pre-drug levels.

Na^+ /H^+ exchange = conditions: inhibition of Na+/H+ exchange in human neutrophils; data taken from Simchowitz and Cragoe, Mol. Pharmacol. 30, 112-120, 1986; cited from earlier work

Nc1cc(Cl)c(NC2=NCCN2)c(Cl)c1 [p-amino clonidine, p-aminoclonidine]
ocular hypotensive response to the alpha2 agonist after pretreatment with the Na+/H+ exchange inhibitor [1]: augmented

Clc1cccc(Cl)c1N=C1NCCN1 [clonidine]
ocular hypotensive response to the alpha2 agonist after pretreatment with the Na+/H+ exchange inhibitor [1]: augmented

N=C(N)NC(=O)c1nc(Cl)c(N)nc1N [Amiloride]
ΔIOP at 1 Hr., (X + p) [1]: +3.0 mmHg
ΔIOP at 3 Hr., (X + p) [1]: +2.6 mmHg
ΔIOP at 1 Hr., (X + p) - p [1]: +0.2 mmHg
ΔIOP at 3 Hr., (X + p) - p [1]: +0.6 mmHg
Ki (Na^+ /H^+ exchange): 83.8 µM

NC(N)=NC(=O)c1nc(Cl)c(N2CCCCCC2)nc1N [5-(N,N-hexamethylene) amiloride]
ΔIOP at 1 Hr., (X + p) [1]: -8.6 mmHg
ΔIOP at 3 Hr., (X + p) [1]: -7.5 mmHg
IOP change, amiloride analog administered alone [1]: substantially inactive
ΔIOP at 1 Hr., (X + p) - p [1]: -11.6 mmHg
ΔIOP at 3 Hr., (X + p) - p [1]: -10.1 mmHg
Ki (Na^+ /H^+ exchange): 0.16 µM

Brc1c(NC2=NCCN2)ccc2nccnc12 [5-bromo-6-(2-imidazolidine-2-ylamino)quinoxaline]
ocular hypotensive response to the alpha2 agonist after pretreatment with the Na+/H+ exchange inhibitor [1]: augmented

CN(C)c1nc(N)c(C(=O)N=C(N)N)nc1Cl [5-(N,N-dimethyl) amiloride]
ΔIOP at 1 Hr., (X + p) [1]: +1.8 mmHg
ΔIOP at 3 Hr., (X + p) [1]: +0.7 mmHg
IOP change, amiloride analog administered alone [1]: substantially inactive
ΔIOP at 1 Hr., (X + p) - p [1]: -1.2 mmHg
ΔIOP at 3 Hr., (X + p) - p [1]: -1.9 mmHg
Ki (Na^+ /H^+ exchange): 6.9 µM

CCN(c1nc(N)c(C(=O)N=C(N)N)nc1Cl)C(C)C [5-(N-ethyl-N-isopropyl) amiloride]
ΔIOP at 1 Hr., (X + p) [1]: -7.2 mmHg
ΔIOP at 3 Hr., (X + p) [1]: -5.7 mmHg
IOP change, amiloride analog administered alone [1]: substantially inactive
ΔIOP at 1 Hr., (X + p) - p [1]: -10.2 mmHg
ΔIOP at 3 Hr., (X + p) - p [1]: -7.4 mmHg
IOP response to the Na+/H+ exchange inhibitor alone ([1]; three concentrations (0.1, 0.3, 1%), topical, FIG. 1): did not significantly alter IOP
Ki (Na^+ /H^+ exchange): 0.36 µM
